# Measured values as given in PubChem BioAssay (NCI).
#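 Tested at 5 concentrations; 48 h exposure; 96-well plates; endpoints linearly interpolated, else capped at highest concentration. Abbreviation: GI50, concentration required for 50% inhibition of growth. TGI: concentration producing complete growth inhibition.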
# Legend:
# Assay in all cases: NCI-60 cell line screen, 48 h
# [1] = tested on: SK-MEL-2 melanoma
# [2] = tested on: BT-549 breast
# [3] = tested on: HL-60(TB) leukemia
# [4] = tested on: RPMI-8226 leukemia
# [5] = tested on: DU-145 prostate
# [6] = tested on: CCRF-CEM leukemia
# [7] = tested on: COLO 205 colon
# [8] = tested on: T-47D breast
# [9] = tested on: OVCAR-3 ovarian
# [10] = tested on: NCI-H460 lung
# [11] = tested on: PC-3 prostate
# [12] = tested on: U251 CNS
# [13] = tested on: SK-MEL-28 melanoma
# [14] = tested on: NCI-H23 lung
# [15] = tested on: NCI/ADR-RES ovarian
# [16] = tested on: SK-OV-3 ovarian
# [17] = tested on: 786-0 renal
# [18] = tested on: LOX IMVI melanoma
# [19] = tested on: MDA-MB-231 breast
# [20] = tested on: OVCAR-4 ovarian
# [21] = tested on: HOP-92 NSCLC
# [22] = tested on: SF-539 CNS
# [23] = tested on: NCI-H522 lung
# [24] = tested on: HT29 colon
# [25] = tested on: UACC-62 melanoma
# [26] = tested on: HCT-116 colon
# [27] = tested on: SF-268 CNS
# [28] = tested on: SK-MEL-5 melanoma
# [29] = tested on: ACHN renal
# [30] = tested on: SW-620 colon
# [31] = tested on: RXF 393 renal
# [32] = tested on: TK-10 renal
# [33] = tested on: MCF7 breast
# [34] = tested on: M14 melanoma
# [35] = tested on: HS 578T breast
# [36] = tested on: CAKI-1 renal
# [37] = tested on: UO-31 renal
# [38] = tested on: MOLT-4 leukemia
# [39] = tested on: HCC-2998 colon
# [40] = tested on: HOP-62 NSCLC
# [41] = tested on: HCT-15 colon
# [42] = tested on: A549 NSCLC
# [43] = tested on: NCI-H226 lung
# [44] = tested on: MALME-3M melanoma
# [45] = tested on: SN12C renal
# [46] = tested on: A498 renal
# [47] = tested on: UACC-257 melanoma
# [48] = tested on: EKVX NSCLC
# [49] = tested on: K-562 leukemia
# [50] = tested on: MDA-MB-435
# [51] = tested on: OVCAR-5 ovarian
# [52] = tested on: SNB-19 CNS
# [53] = tested on: SF-295 CNS
# [54] = tested on: KM12 colon
# [55] = tested on: OVCAR-8 ovarian
# [56] = tested on: SNB-75 CNS
smiles,measurement,setting,value
N=C(N)c1ccc(-c2ccc(-c3ccc(Cl)c(Cl)c3)s2)cc1,GI50,[1],2510 nM
same,TGI,[1],5800 nM
same,GI50,[2],6390 nM
same,TGI,[2],50000 nM
same,GI50,[3],1700 nM
same,TGI,[3],4230 nM
same,GI50,[4],1890 nM
same,TGI,[4],4370 nM
same,GI50,[5],1750 nM
same,TGI,[5],3130 nM
same,GI50,[6],1540 nM
same,TGI,[6],4260 nM
CN(C)CCCOc1cccc(NC2=C(Cl)C(=O)C(Nc3cccc(OCCCN(C)C)c3)=C(Cl)C2=O)c1,GI50,[7],1560 nM
same,TGI,[7],3340 nM
same,GI50,[8],243 nM
same,TGI,[8],779 nM
same,GI50,[1],1530 nM
same,TGI,[1],3200 nM
same,GI50,[9],188 nM
same,TGI,[9],355 nM
same,GI50,[2],1570 nM
same,TGI,[2],2930 nM
same,GI50,[10],1800 nM
same,TGI,[10],3480 nM
same,GI50,[11],1570 nM
same,TGI,[11],3290 nM
same,GI50,[12],1570 nM
same,TGI,[12],2970 nM
same,GI50,[13],1710 nM
same,TGI,[13],3160 nM
same,GI50,[14],1130 nM
same,TGI,[14],2790 nM
same,GI50,[15],2620 nM
same,TGI,[15],9690 nM
same,GI50,[16],5450 nM
same,TGI,[16],18300 nM
same,GI50,[17],763 nM
same,TGI,[17],2090 nM
same,GI50,[18],175 nM
same,TGI,[18],346 nM
same,GI50,[19],655 nM
same,TGI,[19],1600 nM
same,GI50,[20],216 nM
same,TGI,[20],592 nM
same,GI50,[21],580 nM
same,TGI,[21],1280 nM
same,GI50,[22],1800 nM
same,TGI,[22],3220 nM
same,GI50,[4],1250 nM
same,TGI,[4],4540 nM
same,GI50,[23],172 nM
same,TGI,[23],437 nM
same,GI50,[24],560 nM
same,TGI,[24],1590 nM
same,GI50,[25],1500 nM
same,TGI,[25],2950 nM
same,GI50,[26],286 nM
same,TGI,[26],804 nM
same,GI50,[27],1700 nM
same,TGI,[27],3470 nM
same,GI50,[28],1000 nM
same,TGI,[28],2370 nM
same,GI50,[29],1780 nM
same,TGI,[29],3160 nM
same,GI50,[30],276 nM
same,TGI,[30],766 nM
same,GI50,[31],885 nM
same,TGI,[31],2220 nM
same,GI50,[32],831 nM
same,TGI,[32],2120 nM
same,GI50,[33],184 nM
same,TGI,[33],408 nM
same,GI50,[34],1330 nM
same,TGI,[34],2740 nM
same,GI50,[35],2110 nM
same,TGI,[35],5400 nM
same,GI50,[36],1450 nM
same,TGI,[36],2760 nM
same,GI50,[37],1450 nM
same,TGI,[37],2760 nM
same,GI50,[38],515 nM
same,TGI,[38],1590 nM
same,GI50,[39],1340 nM
same,TGI,[39],2810 nM
same,GI50,[40],1930 nM
same,TGI,[40],3680 nM
same,GI50,[5],765 nM
same,TGI,[5],2000 nM
same,GI50,[41],911 nM
same,TGI,[41],2450 nM
same,GI50,[42],1900 nM
same,TGI,[42],3500 nM
same,GI50,[43],5850 nM
same,TGI,[43],14100 nM
same,GI50,[44],592 nM
same,TGI,[44],1360 nM
same,GI50,[45],345 nM
same,TGI,[45],865 nM
same,GI50,[46],1590 nM
same,TGI,[46],3010 nM
same,GI50,[47],941 nM
same,TGI,[47],2280 nM
same,GI50,[48],1190 nM
same,TGI,[48],2540 nM
same,GI50,[49],307 nM
same,TGI,[49],1420 nM
same,GI50,[50],1040 nM
same,TGI,[50],2440 nM
same,GI50,[51],1830 nM
same,TGI,[51],3430 nM
same,GI50,[52],1780 nM
same,TGI,[52],3320 nM
same,GI50,[53],1730 nM
same,TGI,[53],3180 nM
same,GI50,[54],1320 nM
same,TGI,[54],2730 nM
same,GI50,[55],1570 nM
same,TGI,[55],3440 nM
same,GI50,[56],1680 nM
same,TGI,[56],3600 nM
same,GI50,[6],402 nM
same,TGI,[6],3260 nM
